Key:
[1] = target: T1, Probable G-protein coupled receptor 142 (Homo sapiens, UniProt Q7Z601); experiment: Agonist activity at human GPR142 expressed in CHO cells measured for 3 mins by Fluo-4M dye based FLIPR assay; format: cell-based; conditions: read-out: IC50 (the source's name)
T1 sequence (Q7Z601 whole entry): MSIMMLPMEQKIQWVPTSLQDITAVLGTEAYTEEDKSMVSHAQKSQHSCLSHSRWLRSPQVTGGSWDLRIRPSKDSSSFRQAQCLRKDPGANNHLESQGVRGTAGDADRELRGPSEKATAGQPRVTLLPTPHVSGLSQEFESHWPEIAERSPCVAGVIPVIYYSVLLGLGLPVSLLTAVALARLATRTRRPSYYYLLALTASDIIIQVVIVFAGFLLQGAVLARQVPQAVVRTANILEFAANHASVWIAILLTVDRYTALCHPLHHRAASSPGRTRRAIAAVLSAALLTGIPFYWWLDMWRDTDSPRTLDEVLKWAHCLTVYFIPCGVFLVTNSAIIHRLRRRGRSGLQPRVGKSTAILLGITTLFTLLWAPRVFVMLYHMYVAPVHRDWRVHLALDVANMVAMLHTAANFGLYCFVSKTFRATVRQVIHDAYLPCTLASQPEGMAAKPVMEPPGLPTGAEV

[2] = target: T2, Probable G-protein coupled receptor 142 (Mus musculus, UniProt Q7TQN9); experiment: Agonist activity at mouse GPR142 expressed in CHO cells measured for 3 mins by Fluo-4M dye based FLIPR assay; format: cell-based; conditions: read-out: IC50 (the source's name)
T2 sequence (Q7TQN9 whole entry): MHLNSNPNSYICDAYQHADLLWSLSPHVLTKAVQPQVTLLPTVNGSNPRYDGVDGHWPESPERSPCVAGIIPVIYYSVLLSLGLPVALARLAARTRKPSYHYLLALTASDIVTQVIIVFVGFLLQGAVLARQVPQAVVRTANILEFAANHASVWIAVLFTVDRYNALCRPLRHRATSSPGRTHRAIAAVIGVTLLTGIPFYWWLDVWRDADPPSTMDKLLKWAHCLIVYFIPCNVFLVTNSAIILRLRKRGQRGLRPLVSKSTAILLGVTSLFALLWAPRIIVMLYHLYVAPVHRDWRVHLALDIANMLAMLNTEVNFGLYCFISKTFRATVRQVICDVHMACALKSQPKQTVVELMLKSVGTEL

Cytochrome P450 2D6 = Cytochrome P450 2D6 (Homo sapiens, UniProt P10635); experiment: Inhibition of human liver microsomes CYP2D6 using dextromethorphan as substrate by MUX-MS/MS analysis; format: ADME, Microsome
Chain of Cytochrome P450 2D6 (P10635 whole entry): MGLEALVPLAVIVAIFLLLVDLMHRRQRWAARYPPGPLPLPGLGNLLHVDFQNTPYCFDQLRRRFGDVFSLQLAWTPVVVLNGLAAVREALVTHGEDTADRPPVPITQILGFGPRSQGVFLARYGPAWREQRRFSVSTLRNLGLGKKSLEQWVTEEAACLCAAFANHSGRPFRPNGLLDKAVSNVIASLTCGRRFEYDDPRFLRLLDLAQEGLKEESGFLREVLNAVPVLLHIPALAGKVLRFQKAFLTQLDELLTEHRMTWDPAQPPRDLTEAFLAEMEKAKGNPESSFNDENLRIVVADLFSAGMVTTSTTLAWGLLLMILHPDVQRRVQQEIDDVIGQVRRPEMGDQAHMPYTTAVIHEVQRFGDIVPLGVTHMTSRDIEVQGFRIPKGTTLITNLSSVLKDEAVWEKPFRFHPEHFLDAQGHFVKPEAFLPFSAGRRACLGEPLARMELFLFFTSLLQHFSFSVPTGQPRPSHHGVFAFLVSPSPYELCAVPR

Cytochrome P450 3A4 = Cytochrome P450 3A4 (Homo sapiens, UniProt P08684); experiment: Inhibition of human liver microsomes CYP3A4 using testosterone as substrate by MUX-MS/MS analysis; format: ADME, Microsome
Chain of Cytochrome P450 3A4 (P08684 whole entry): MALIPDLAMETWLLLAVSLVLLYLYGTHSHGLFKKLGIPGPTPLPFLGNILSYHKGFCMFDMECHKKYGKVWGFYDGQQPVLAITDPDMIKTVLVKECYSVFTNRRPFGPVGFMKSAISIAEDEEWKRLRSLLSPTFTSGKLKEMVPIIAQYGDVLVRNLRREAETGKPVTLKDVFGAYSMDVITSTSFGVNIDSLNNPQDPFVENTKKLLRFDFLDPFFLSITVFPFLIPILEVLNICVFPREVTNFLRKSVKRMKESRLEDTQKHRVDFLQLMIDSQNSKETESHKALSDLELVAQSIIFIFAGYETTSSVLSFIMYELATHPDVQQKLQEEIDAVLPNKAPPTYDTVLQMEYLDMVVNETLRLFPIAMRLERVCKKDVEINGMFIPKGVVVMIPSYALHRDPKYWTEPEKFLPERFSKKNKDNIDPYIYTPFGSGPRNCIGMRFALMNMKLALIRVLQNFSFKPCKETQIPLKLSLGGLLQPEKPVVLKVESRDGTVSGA

Cytochrome P450 2C9 = Cytochrome P450 2C9 (Homo sapiens, UniProt P11712); experiment: Inhibition of human liver microsomes CYP2C9 using diclofenac as substrate by MUX-MS/MS analysis; format: ADME, Microsome
Chain of Cytochrome P450 2C9 (P11712 whole entry): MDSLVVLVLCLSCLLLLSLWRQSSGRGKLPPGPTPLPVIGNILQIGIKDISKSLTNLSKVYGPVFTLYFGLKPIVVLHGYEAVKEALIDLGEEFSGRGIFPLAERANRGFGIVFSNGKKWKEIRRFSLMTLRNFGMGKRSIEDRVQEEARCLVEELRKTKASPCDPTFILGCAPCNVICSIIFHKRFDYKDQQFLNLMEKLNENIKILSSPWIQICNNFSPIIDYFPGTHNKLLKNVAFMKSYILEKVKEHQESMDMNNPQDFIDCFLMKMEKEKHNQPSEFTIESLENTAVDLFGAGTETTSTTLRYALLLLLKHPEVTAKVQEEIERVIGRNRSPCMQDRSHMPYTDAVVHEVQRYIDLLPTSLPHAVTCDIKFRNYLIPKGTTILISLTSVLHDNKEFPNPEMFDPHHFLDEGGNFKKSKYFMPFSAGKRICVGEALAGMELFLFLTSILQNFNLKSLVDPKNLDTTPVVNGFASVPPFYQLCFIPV

[3] = target: Voltage-gated inwardly rectifying potassium channel KCNH2 (Homo sapiens, UniProt Q12809); experiment: Inhibition of human ERG expressed in HEK293 cells assessed as reduction in S35-MK-0499 binding; format: cell-based
Chain of Voltage-gated inwardly rectifying potassium channel KCNH2 (Q12809 whole entry): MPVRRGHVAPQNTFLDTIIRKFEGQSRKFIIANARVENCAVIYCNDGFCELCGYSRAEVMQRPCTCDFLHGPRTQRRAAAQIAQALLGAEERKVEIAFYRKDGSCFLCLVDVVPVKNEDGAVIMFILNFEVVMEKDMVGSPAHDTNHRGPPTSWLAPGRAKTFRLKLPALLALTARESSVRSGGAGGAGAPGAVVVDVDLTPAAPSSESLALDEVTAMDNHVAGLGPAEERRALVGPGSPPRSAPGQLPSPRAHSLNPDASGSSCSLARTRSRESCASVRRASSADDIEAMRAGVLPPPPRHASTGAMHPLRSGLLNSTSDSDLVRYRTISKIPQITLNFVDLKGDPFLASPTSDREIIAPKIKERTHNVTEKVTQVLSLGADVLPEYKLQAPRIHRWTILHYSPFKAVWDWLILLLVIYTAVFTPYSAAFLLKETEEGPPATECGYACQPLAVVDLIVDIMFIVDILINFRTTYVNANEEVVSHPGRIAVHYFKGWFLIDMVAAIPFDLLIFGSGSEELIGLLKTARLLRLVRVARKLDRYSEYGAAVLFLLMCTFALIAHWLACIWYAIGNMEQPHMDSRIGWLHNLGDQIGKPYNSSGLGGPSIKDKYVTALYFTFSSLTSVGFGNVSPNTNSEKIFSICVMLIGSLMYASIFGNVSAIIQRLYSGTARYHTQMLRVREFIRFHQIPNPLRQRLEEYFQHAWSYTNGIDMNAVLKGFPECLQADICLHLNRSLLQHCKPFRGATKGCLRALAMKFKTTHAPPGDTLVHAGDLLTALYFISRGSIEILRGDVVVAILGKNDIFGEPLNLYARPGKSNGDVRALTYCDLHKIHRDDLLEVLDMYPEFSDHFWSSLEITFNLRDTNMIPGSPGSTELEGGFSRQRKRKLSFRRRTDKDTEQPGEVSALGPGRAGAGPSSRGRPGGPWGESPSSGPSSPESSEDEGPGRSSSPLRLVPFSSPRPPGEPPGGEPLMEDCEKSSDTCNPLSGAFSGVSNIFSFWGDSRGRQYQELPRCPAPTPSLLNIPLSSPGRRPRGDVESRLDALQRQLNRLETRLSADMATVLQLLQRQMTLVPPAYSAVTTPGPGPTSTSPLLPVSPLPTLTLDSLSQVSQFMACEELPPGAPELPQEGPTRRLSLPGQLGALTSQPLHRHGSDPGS

[4] = Protein binding in rat plasma assessed as unbound fraction; format: ADME, cell-free
[5] = Half life in rat at 2 mg/kg, po or 1 mg/kg, iv; format: ADME, organism-based; conditions: in vivo
[6] = Volume of distribution at steady state in rat at 2 mg/kg, po or 1 mg/kg, iv; format: ADME, organism-based; conditions: in vivo, read-out: Vdss
[7] = Clearance in rat at 2 mg/kg, po or 1 mg/kg, iv; format: ADME, organism-based; conditions: in vivo
[8] = Oral bioavailability in rat at 2 mg/kg; format: ADME, organism-based; conditions: in vivo

Compound | EC50 [1] | EC50 [2] | further results
CN1CCN(C(=O)Nc2ccc(Cl)c(Cl)c2)Cc2cc(-c3ccncc3)ccc21 | > 20000 nM | 2570 nM | 
N#Cc1cccc(NC(=O)N2CCOc3ccc(-c4ccnc(N)c4)cc3C2)c1 | 810 nM | 448 nM | 
O=C(Nc1ccccc1F)N1CCOc2ccc(-c3ccncc3)cc2C1 | 13100 nM | 604 nM | 
O=C(Nc1ccc(F)cc1)N1CCOc2ccc(-c3ccncc3)cc2C1 | 1220 nM | 2610 nM | 
COc1cccc(NC(=O)N2CCOc3ccc(-c4ccncn4)cc3C2)c1 | 1600 nM |  | 
O=C(Nc1ccccc1)N1CCOc2ccc(-c3ccncc3)cc2C1 | 793 nM | 851 nM | 
O=C(Nc1cccc(C(F)(F)F)c1)N1CCOc2ccc(-c3ccncc3)cc2C1 | 158 nM | 110 nM | 
COc1cccc(NC(=O)N2CCOc3ccc(-c4ccnc(OC)c4)cc3C2)c1 | 2800 nM | 2570 nM | 
O=C(Nc1ccc(Cl)c(Cl)c1)N1CCCc2ccc(-c3ccncc3)cc21 | > 20000 nM | > 20000 nM | 
Cc1cc(-c2ccc3c(c2)-c2nnc(Oc4ccccc4Cl)n2CCO3)ccn1 | 102 nM |  | IC50 (Cytochrome P450 2D6): 24300 nM; IC50 (Cytochrome P450 3A4): > 50000 nM; IC50 (Cytochrome P450 2C9): > 50000 nM; IC50 [3]: 3510 nM
COc1ccccc1NC(=O)N1CCOc2ccc(-c3ccncc3)cc2C1 | 517 nM | 92 nM | 
O=C(Nc1cccc(F)c1)N1CCOc2ccc(-c3ccncc3)cc2C1 | 224 nM | 413 nM | 
O=S(=O)(Cc1cccc(C(F)(F)F)c1)N1CCOc2ccc(-c3ccncc3)cc2C1 | 2290 nM | 157 nM | 
O=C(Nc1cccc(Oc2ccccc2)c1)N1CCOc2ccc(-c3ccncc3)cc2C1 | 1720 nM | 146 nM | 
CCCCN1CCN(C(=O)Nc2ccc(Cl)c(Cl)c2)Cc2cc(-c3ccncc3)ccc21 | > 20000 nM | 4500 nM | 
Cc1cc(-c2ccc3c(c2)-c2nnc(Nc4cccc(C(F)(F)F)c4)n2CCO3)ccn1 | 63 nM |  | IC50 (Cytochrome P450 2D6): 326 nM; IC50 (Cytochrome P450 3A4): 48300 nM; IC50 (Cytochrome P450 2C9): 1960 nM; IC50 [3]: 388 nM
COc1cccc(NC(=O)N2CCOc3ccc(-c4ccncc4C)cc3C2)c1 | 394 nM | 1180 nM | 
CCc1cc(-c2ccc3c(c2)-c2nnc(Nc4cccc(C(F)(F)F)c4)n2CCO3)ccn1 | 74 nM |  | IC50 (Cytochrome P450 2D6): 2340 nM; fraction unbound [4]: 0.0034; IC50 (Cytochrome P450 3A4): > 50000 nM; half-life [5]: 1.4 h; Vd [6]: 2.6 L/kg; clearance [7]: 14 mL/min/kg; bioavailability [8]: 97%; IC50 (Cytochrome P450 2C9): 3540 nM; IC50 [3]: 334 nM
COc1cccc(N(C)C(=O)N2CCOc3ccc(-c4ccncc4)cc3C2)c1 | > 20000 nM | > 20000 nM | 
O=C(Nc1ccc(Cl)c(Cl)c1)N1CCCc2ccc(-c3ccncc3)cc2C1 | 839 nM | 590 nM | 
COc1cccc(NC(=O)N2CCOc3ccc(-c4ccnc5ccccc45)cc3C2)c1 | 962 nM | 216 nM | 
O=C(Nc1ccc(F)c(Cl)c1)N1CCOc2ccc(-c3ccncc3)cc2C1 | 132 nM | 613 nM | 
Cc1cc(-c2ccc3c(c2)-c2nnc(Oc4ccccc4OC(F)(F)F)n2CCO3)ccn1 | 89 nM |  | IC50 (Cytochrome P450 2D6): 8650 nM; IC50 (Cytochrome P450 3A4): > 50000 nM; IC50 (Cytochrome P450 2C9): 26100 nM; IC50 [3]: 2840 nM
O=C(Nc1ccc(Cl)c(Cl)c1)N1CCOc2ccc(-c3ccncc3)cc2C1 | 140 nM | 138 nM | IC50 (Cytochrome P450 2D6): 76000 nM; fraction unbound [4]: 0.0015; half-life [5]: 0.71 h; Vd [6]: 3.4 L/kg; clearance [7]: 88.6 mL/min/kg; bioavailability [8]: 6%; IC50 ([3]; hek293): 2030 nM
